Measurements from patent US7511119B2, “PRAME peptide analogues” (MannKind Corporation, priority 2005, dated 2009).
Square brackets hold non-standard residues; d marks the D form. Ends that are not written are not given here. Nle = CCCC[C@H](N)C(=O)O; Nva = CCC[C@H](N)C(=O)O

How the values were obtained:
[1] = system: T cell lines against natural epitope SSX-241-49; experiment: Cross-reactivity and functional avidity: IFN-gamma production by T cell lines raised against natural SSX-2 41-49; type: cell-based, HHD transgenic mice; settings: T cells raised to native peptide tested on analogs; footnote * and unit not given;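 further: analogs presented ex vivo by competent APCs to T cells specific for the non-mutated epitope, scored by lowest activating concentration, peak cytokine effect and concentration at that peak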
T2 cells = experiment: Ex vivo cytotoxicity against 51Cr-labeled T2 target cells after plasmid prime and peptide boost; type: in vivo, mice; settings: plasmid prime, peptide boost; splenocytes restimulated ex vivo; FIG. 8
Method: Three groups of mice (n=4) were immunized with a plasmid expressing SSX-241-49 natural epitope by direct inoculation into the inguinal lymph nodes with 25 μg in 25 μl of PBS/each lymph node at day 0, 3, 14 and 17. This was followed by two additional peptide boosts (similar amount) at day 28 and 31. One week after the boost, splenocytes were stimulated ex vivo with SSX-241-49 natural peptide and tested against ^51Cr-labeled target cells (T2 cells) at various E:T ratios (FIG. 8). […] This correlated with the binding and stability parameters determined by ex vivo experimentation.

[2] = system: target cells coated with natural peptide; experiment: In vivo cytotoxicity against splenocytes coated with natural SSX-2 41-49 peptide (CFSE); parameters: species or system HHD mice; settings: spleen and blood; targets coated with 20 μg/ml and 1 μg/ml natural peptide
Method: Eight groups of mice (n=4) were immunized with plasmid expressing SSX-241-49 natural epitope, by direct inoculation into the inguinal lymph nodes with 25 μg in 25 μl of PBS/each lymph node at day 0, 3, 14 and 17. This was followed by two additional peptide boosts (similar amount) at day 28 and 31, using a negative control peptide (Melan A 26-35 “EAA”), natural peptide or analogs as shown in FIG. 9.
To evaluate the in vivo response against natural peptide, splenocytes were isolated from littermate control HHD mice and incubated with 20 μg/mL or 1 μg/ml of natural peptide for 2 hours. These cells were then stained with CFSE^hi fluorescence (4.0 μM or […] for 15 minutes) and intravenously co-injected into immunized mice with an equal number of control splenocytes stained with CFSE^lo fluorescence (0.4 μM). Eighteen hours later the specific elimination of target cells was measured by removing spleen and PBMC from challenged animals and measuring CFSE fluorescence by flow cytometry. The relative depletion of the populations corresponding to peptide loaded splenocytes was calculated relative to the control (unloaded) population and expressed as % specific lysis. FIG. 10 (spleen) and 11 (blood) show the in vivo cytotoxicity elicited by the regimens described in FIG. 7.

624.38 melanoma cells = experiment: Ex vivo cytotoxicity against human tumor cells after boost with SSX-2 analogs; type: in vivo; settings: plasmid prime, peptide boost; FIG. 12
Method: Eight groups of mice (n=4) were immunized with plasmid expressing SSX-241-49 natural epitope by direct inoculation into the inguinal lymph nodes with 25 ug in 25 ul of PBS/each lymph node at day 0, 3, 14 and 17. This was followed by two additional peptide boosts (similar amount) at day 28 and 31, using a negative control peptide (Melan A 26-35 “EAA”), natural peptide or analogs as shown in FIG. 9.

[3] = system: native PSMA288-297 peptide; experiment: Cross-reactive immunogenicity of PSMA analogs, IFN-gamma ELISPOT; type: in vivo, HHD transgenic mice; settings: peptide plus pI:C intranodal; FIG. 22
Method: Groups of HHD transgenic mice (n=8) were immunized with peptide (natural epitope PSMA288-297, or analogs bearing substitutions at primary or secondary anchor residues) by direct inoculation into the inguinal lymph nodes, with 25 μg in 25 μl of PBS+12.5 μg of pI:C to each lymph node at day 0, 3, 14 and 17.
Mice were sacrificed at 10 days after the last boost, and splenocytes prepared and assessed for IFN-γ production by ELISPOT analysis. […] At 48 hours after incubation, the assay was developed and the frequency of cytokine-producing T cells that recognized native PSMA288-297 peptide was automatically counted. The data is represented in FIG. 22 as the number of spot forming colonies/well (mean of triplicates±SD). […] To the extent that the poor immunogenicity of the native epitope reflects tolerance, the improved activity of these analogs represents tolerance breaking.

PSMA288-297 peptide = experiment: Plasmid prime, peptide boost, IFN-gamma ELISPOT (PSMA288-297); type: in vivo, HHD transgenic mice; settings: versus natural peptide boost, FIG. 23
Method: Two groups of HHD transgenic mice (n=8) were immunized with plasmid expressing PSMA288-297 by direct inoculation into the inguinal lymph nodes with 25 μg in […] of PBS to each lymph node at day 0, 3, 14 and 17. This was followed by two peptide boosts (25 μg) at day 28 and 31 with either the natural peptide or the I297V analog.
Mice were sacrificed at 10 days after the last boost, and splenocytes prepared and assessed for IFN-γ production by ELISPOT analysis. […] At 48 hours after incubation, the assay was developed and the frequency of cytokine-producing T cells that recognized the PSMA288-297 peptide was automatically counted. The data is represented in FIG. 23 as frequency of specific T cells normalized to 0.5 million responder cells (mean of triplicates+SD).

LnCap cells = experiment: Ex vivo cytotoxicity against PSMA+ A2+ human tumor cells; type: in vivo; settings: splenocytes restimulated ex vivo with native PSMA288-297
Method: HHD transgenic mice (n=4) were immunized with PSMA288-297 peptide (25 μg in 25 μl of PBS, plus 12.5 μg of pI:C to each lymph node) at day 0, 3, 14 and 17. One week after the boost, splenocytes were stimulated ex vivo with the native PSMA288-297 peptide and tested against ^51Cr-labeled human tumor cells (PSMA^+ A2^+ LnCap cells, or as negative control, LnCap cells coated with MHC class I-blocking antibody) at various E:T ratios.
HHD transgenic mice (n=4) were immunized with plasmid expressing the PSMA288-297 epitope by direct inoculation into the inguinal lymph nodes with 25 μg in 25 μl of PBS to each lymph node at day 0, 3, 14 and 17. This was followed by two peptide boosts (same amount) at day 28 and 31, with the analog I297V. One week after the boost, splenocytes were stimulated ex vivo with the native PSMA288-297 peptide and tested overnight against ^51Cr-labeled human tumor cells (Lncap, A2^+ PSMA^+; or 624.38 A2^+ PSMA^− or control 624.28 cells A2^− PSMA^−) at various E:T ratios.

[4] = target: T1, A0201 restricted MHC Class 1 molecules (Homo sapiens, UniProt P04439, D140Y/D185E/D98H/E176V/E277Q/G131W/G231S/I119V/I121R/I166T/I218V/N151K/N90K/P208A/P217A/Q86G/Q94H/R138H/R169H); experiment: iTopia binding assay (% binding); settings: compared with the native peptide
Text: (§1) Avidin-coated microtiter plates containing class I monomer loaded with a so-called placeholder peptide were used to evaluate peptide binding, affinity and off-rate. […] Assay buffers, anti-MHC-FITC mAb and beta2-microglobulin and control peptides were also supplied with the kits.
This assay measures the ability of individual peptides to bind HLA molecules under standardized optimal binding conditions. Monomer-coated plates were first stripped, releasing the placeholder peptide and leaving only the MHC heavy chain bound to the plate. Test peptides were then introduced under optimal folding conditions, along with the anti-MHC-FITC mAb. […] The anti-MHC-FITC mAb binds preferentially to a refolded MHC complex. Therefore, the fluorescence intensity resulting from each peptide was related to the peptide's ability to form complex with MHC molecule. Each peptide's binding was evaluated relative to the positive control peptide provided in the kit, and the results were expressed “% binding”.

[5] = system: native peptide loaded splenocytes; experiment: In vivo cytotoxicity against native PRAME peptide-loaded splenocytes (CFSE); parameters: species or system HHD transgenic mice; settings: pCTLR2 prime, peptide boost; FIGS. 30-31
[6] = system: target cells coated with wild-type peptide; experiment: In vivo cytotoxicity against wild-type NY-ESO-1 peptide-coated target cells; parameters: species or system HHD mice; settings: plasmid entrain, peptide amplify; FIGS. 15-16
Method: These cells were then stained with CFSE^hi and CFSE^med fluorescence (4.0 μM or 1 μM, respectively, for 15 minutes) and intravenously co-injected into immunized mice with an equal number of control splenocytes stained with CFSE^lo fluorescence (0.4 μM). Eighteen hours later the specific elimination of target cells was measured by removing the spleens and PBMC from challenged animals and measuring CFSE fluorescence by flow cytometry. The relative depletion of the populations corresponding to peptide loaded splenocytes was calculated relative to the control (unloaded) population and expressed as % specific lysis.

splenocytes = experiment: Ex vivo IFN-gamma production after re-stimulation with wild-type NY-ESO-1157-165 (ELISA); type: in vivo, mice; settings: 10 μM wild-type peptide, 3 and 6 days; FIG. 17
Text: Supernatants were harvested and the concentration of IFN-γ measured by ELISA.

[7] = target: T1, A0201 restricted MHC Class 1 molecules; experiment: iTopia off-rate assay (T1/2); type: binding; settings: compared with the respective native peptide
Method: as §1
The plates were then incubated on the allele-specific monomer plates at 37° C. The plates were measured at multiple time points (0, 0.5, 1, 1.5, 2, 4, 6 and 8 hrs) for relative fluorescence intensity. The time required for 50% of the peptide to dissociate from the MHC monomer is defined as the T1/2 value (hrs).
The binding and offrate (T1/2) was determined for six native epitopes and their analogs which were designed to enhance the immune response.

624.38 cells = experiment: Ex vivo cytotoxicity against human tumor cells after boost with tyrosinase analogs; type: in vivo; settings: pSEM prime, peptide boost; FIG. 41
Method: HHD transgenic mice (n=4/group) were immunized (according to the general protocol in FIG. 40) with plasmid (pSEM) expressing the Tyrosinase369-377 epitope by direct inoculation into the inguinal lymph nodes of 25 μg of plasmid in 25 μl of PBS per lymph node at day 0, 3, 14 and 17. […] One week after the boost, splenocytes were stimulated ex vivo with the native Tyrosinase369-377 peptide and assayed against ^51Cr-labeled human tumor cells (624.38 cells) at various E:T ratios. […] Together with the preceding example, this observation illustrates the usefulness of complementing more stringent assays (in vivo cytotoxicity and tetramer staining) with more sensitive assays (ex vivo cytotoxicity after in vitro stimulation) to outline potentially useful analogs.

[8] = target: T2, HLA-A*0201 class I monomer of the iTopia Epitope Discovery System; experiment: iTopia affinity assay
T2 construct: also called A0201 restricted MHC Class 1 molecules; MHC monomer

[9] = target: T2, HLA-A*0201 class I monomer of the …; experiment: iTopia off-rate assay
[10] = target: T2, HLA-A*0201 class I monomer of the …; experiment: iTopia affinity and off-rate assays

CC[C@H](C)[C@H](NC(=O)[C@H](CCCCN)NC(=O)[C@H](CCC(=O)O)NC(=O)[C@H](CO)NC(=O)[C@@H](NC(=O)[C@@H](N)CCCCN)C(C)C)C(=O)N[C@@H](Cc1ccccc1)C(=O)N[C@@H](Cc1ccc(O)cc1)C(=O)N[C@H](C(=O)O)C(C)C [SSX2 41-49 (A42V)]
Cross-reactivity and fct avidity (native to analogs)* [1]: 0.03 | response against target cells expressing the natural peptide (T2 cells): higher response | in vivo cytotoxicity (% specific lysis), in words [2]: increased activity | cytotoxicity against human tumor cells expressing natural SSX-2 41-49 epitope (624.38 melanoma cells): increased cytotoxicity

PSMA 288-297(I297V): PSMA288-297 analog with I297V substitution
priming of immune response against native PSMA288-297 (IFN-γ ELISPOT), in words [3]: increased priming | frequency of native epitope-specific T cells (ELISPOT) (PSMA288-297 peptide): considerably higher | cytotoxicity against LnCap human tumor cells (LnCap cells): effective in mediating cytotoxicity against LNCAP

S425F: PRAME425-433 analog with Phe for the Ser at P1 (FLLQHLIGL) [Peptide S425F]
percent binding, in words [4]: exceeded that range on the high side | in vivo cytotoxicity against native epitope, in words [5]: capable of expanding the immunity against the native epitope

SNvaLMWITQV (S[Nva]LMWITQV) [Nyeso-1 157-165 (L158Nva, C165V))]
in vivo cytotoxicity (% specific lysis), in words [6]: substantial, constant cytotoxicity | IFN-gamma production upon ex vivo re-stimulation with wild-type peptide (splenocytes): large levels of IFN-gamma more rapidly | stability of binding (half-time of dissociation), in words [7]: Significant increase in the stability

YVDGTMSQNva (YVDGTMSQ[Nva]) [M370V V377Nva]
cytotoxicity against 624.38 cells (624.38 cells): robust cytotoxicity

B1: PRAME425-433 analog with Nva at PΩ (peptide)
peptide: SLLQHLIG[Nva]
fold difference of ED50 against the native peptide [8]: ≤ 3 fold | t1/2 [9]: 17.2 h

B2: PRAME425-433 analog with Phe at P1, Nva at P2 and Nle at PΩ (peptide)
peptide: F[Nva]LQHLIG[Nle]
binding result [10]: binds
